Laboratory results published in ChEMBL document CHEMBL3045679, “Microwave-assisted synthesis and pharmacological studies of novel 5-deazaalloxazine derivatives” (2012).
Values after ≈ are worked out from the molar mass of the structure shown. Active and inactive are the calls of the source. The calls are words filed in the database; no cut-off is given here.

Assays:
Aspergillus niger [1] = experiment: Antifungal activity against Aspergillus niger NCIM 1196 at 500 ug/disk after 72 hr by disk diffusion method; type: functional
Bacillus subtilis [2] = experiment: Antibacterial activity against Bacillus subtilis NCIM 2063 after 24 hr by broth dilution assay; type: functional; conditions: NCIM 2063, 24 h
Pseudomonas aeruginosa [3] = experiment: Antibacterial activity against Pseudomonas aeruginosa NCIM 2200 at 1000 ug/disk after 24 hr by disk diffusion method; type: functional; conditions: NCIM 2200, 24 h, read-out: DIZ
Aspergillus flavus [4] = experiment: Antifungal activity against Aspergillus flavus NCIM 535 at 1000 ug/disk after 72 hr by disk diffusion method; type: functional
Pseudomonas aeruginosa [5] = experiment: Antibacterial activity against Pseudomonas aeruginosa NCIM 2200 after 24 hr by broth dilution assay; type: functional; conditions: NCIM 2200, 24 h
Streptomyces albus [6] = experiment: Antibacterial activity against Streptomyces albus NCIM 2178 at 1000 ug/disk after 24 hr by disk diffusion method; type: functional; conditions: NCIM 2178, 24 h, read-out: DIZ
Klebsiella aerogenes [7] = experiment: Antibacterial activity against Enterobacter aerogenes NCIM 2239 at 1000 ug/disk after 24 hr by disk diffusion method; type: functional; conditions: NCIM 2239, 24 h, read-out: DIZ
Candida albicans [8] = experiment: Antifungal activity against Candida albicans NCIM 3471 at 1000 ug/disk after 72 hr by disk diffusion method; type: functional
Rhodotorula mucilaginosa [9] = experiment: Antifungal activity against Rhodotorula mucilaginosa NCIM 3174 at 500 ug/disk after 72 hr by disk diffusion method; type: functional
Klebsiella aerogenes [10] = experiment: Antibacterial activity against Enterobacter aerogenes NCIM 2239 at 500 ug/disk after 24 hr by disk diffusion method; type: functional
Lipomyces lipofer [11] = experiment: Antifungal activity against Lipomyces lipofer NCIM 3252 after 72 hr by broth dilution assay; type: functional; conditions: NCIM 3252, 72 h
Bacillus cereus [12] = experiment: Antibacterial activity against Bacillus cereus NCIM 2155 at 1000 ug/disk after 24 hr by disk diffusion method; type: functional; conditions: NCIM 2155, 24 h, read-out: DIZ
Penicillium chrysogenum [13] = experiment: Antifungal activity against Penicillium chrysogenum NCIM 707 at 500 ug/disk after 72 hr by disk diffusion method; type: functional
Penicillium chrysogenum [14] = experiment: Antifungal activity against Penicillium chrysogenum NCIM 707 at 1000 ug/disk after 72 hr by disk diffusion method; type: functional
Aspergillus flavus [15] = experiment: Antifungal activity against Aspergillus flavus NCIM 535 at 500 ug/disk after 72 hr by disk diffusion method; type: functional
Aspergillus niger [16] = experiment: Antifungal activity against Aspergillus niger NCIM 1196 at 1000 ug/disk after 72 hr by disk diffusion method; type: functional
Bacillus cereus [17] = experiment: Antibacterial activity against Bacillus cereus NCIM 2155 after 24 hr by broth dilution assay; type: functional; conditions: NCIM 2155, 24 h
Klebsiella aerogenes [18] = experiment: Antibacterial activity against Enterobacter aerogenes NCIM 2239 after 24 hr by broth dilution assay; type: functional; conditions: NCIM 2239, 24 h
Lipomyces lipofer [19] = experiment: Antifungal activity against Lipomyces lipofer NCIM 3252 at 1000 ug/disk after 72 hr by disk diffusion method; type: functional
Lipomyces lipofer [20] = experiment: Antifungal activity against Lipomyces lipofer NCIM 3252 at 500 ug/disk after 72 hr by disk diffusion method; type: functional
Escherichia coli [21] = experiment: Antibacterial activity against Escherichia coli NCIM 2065 after 24 hr by broth dilution assay; type: functional; conditions: NCIM 2065, 24 h
Streptomyces albus [22] = experiment: Antibacterial activity against Streptomyces albus NCIM 2178 after 24 hr by broth dilution assay; type: functional; conditions: NCIM 2178, 24 h
Streptomyces albus [23] = experiment: Antibacterial activity against Streptomyces albus NCIM 2178 at 500 ug/disk after 24 hr by disk diffusion method; type: functional, organism-based
Bacillus subtilis [24] = experiment: Antibacterial activity against Bacillus subtilis NCIM 2063 at 1000 ug/disk after 24 hr by disk diffusion method; type: functional; conditions: NCIM 2063, 24 h, read-out: DIZ
Aspergillus niger [25] = experiment: Antifungal activity against Aspergillus niger NCIM 1196 after 72 hr by broth dilution assay; type: functional; conditions: NCIM 1196, 72 h
Escherichia coli [26] = experiment: Antibacterial activity against Escherichia coli NCIM 2065 at 500 ug/disk after 24 hr by disk diffusion method; type: functional; conditions: NCIM 2065, 24 h, read-out: DIZ
Escherichia coli [27] = experiment: Antibacterial activity against Escherichia coli NCIM 2065 at 1000 ug/disk after 24 hr by disk diffusion method; type: functional; conditions: NCIM 2065, 24 h, read-out: DIZ
Rhodotorula mucilaginosa [28] = experiment: Antifungal activity against Rhodotorula mucilaginosa NCIM 3174 at 1000 ug/disk after 72 hr by disk diffusion method; type: functional
Pseudomonas aeruginosa [29] = experiment: Antibacterial activity against Pseudomonas aeruginosa NCIM 2200 at 500 ug/disk after 24 hr by disk diffusion method; type: functional
Candida albicans [30] = experiment: Antifungal activity against Candida albicans NCIM 3471 at 500 ug/disk after 72 hr by disk diffusion method; type: functional
Bacillus cereus [31] = experiment: Antibacterial activity against Bacillus cereus NCIM 2155 at 500 ug/disk after 24 hr by disk diffusion method; type: functional
Bacillus subtilis [32] = experiment: Antibacterial activity against Bacillus subtilis NCIM 2063 at 500 ug/disk after 24 hr by disk diffusion method; type: functional; conditions: NCIM 2063, 24 h, read-out: DIZ

Cc1cccc2cc3c(=O)[nH]c(=S)[nH]c3nc12
zone of inhibition at 500 µg/disc (Aspergillus niger [1]; NCIM 1196, 72 h, read-out: DIZ): 12 mm
MIC (Bacillus subtilis [2]): 31.2 µg/mL (≈ 128 µM)
zone of inhibition at 1000 µg/disc (Pseudomonas aeruginosa [3]): 12 mm
zone of inhibition at 1000 µg/disc (Aspergillus flavus [4]; NCIM 535, 72 h, read-out: DIZ): 10 mm
MIC (Pseudomonas aeruginosa [5]): 6.5 µg/mL (≈ 26.7 µM)
zone of inhibition at 1000 µg/disc (Streptomyces albus [6]): 12 mm
zone of inhibition at 1000 µg/disc (Klebsiella aerogenes [7]): 10 mm
diameter of the inhibition zone (DIZ) (Candida albicans [8]): inactive
diameter of the inhibition zone (DIZ) (Rhodotorula mucilaginosa [9]): inactive
diameter of the inhibition zone (DIZ) (Klebsiella aerogenes [10]): inactive
MIC (Lipomyces lipofer [11]): 125 µg/mL (≈ 514 µM)
zone of inhibition at 1000 µg/disc (Bacillus cereus [12]): 13 mm
diameter of the inhibition zone (DIZ) (Penicillium chrysogenum [13]): inactive
zone of inhibition at 1000 µg/disc (Penicillium chrysogenum [14]; NCIM 707, 72 h, read-out: DIZ): 9 mm
diameter of the inhibition zone (DIZ) (Aspergillus flavus [15]): inactive
zone of inhibition at 1000 µg/disc (Aspergillus niger [16]; NCIM 1196, 72 h, read-out: DIZ): 16 mm
MIC (Bacillus cereus [17]): 31.2 µg/mL (≈ 128 µM)
MIC (Klebsiella aerogenes [18]): 15.6 µg/mL (≈ 64.1 µM)
zone of inhibition at 1000 µg/disc (Lipomyces lipofer [19]; NCIM 3252, 72 h, read-out: DIZ): 10 mm
zone of inhibition at 500 µg/disc (Lipomyces lipofer [20]; NCIM 3252, 72 h, read-out: DIZ): 8 mm
MIC (Escherichia coli [21]): 31.2 µg/mL (≈ 128 µM)
MIC (Streptomyces albus [22]): 125 µg/mL (≈ 514 µM)
diameter of the inhibition zone (DIZ) (Streptomyces albus [23]): inactive
zone of inhibition at 1000 µg/disc (Bacillus subtilis [24]): 12 mm
MIC (Aspergillus niger [25]): 3.9 µg/mL (≈ 16 µM)
zone of inhibition at 500 µg/disc (Escherichia coli [26]): 8 mm
zone of inhibition at 1000 µg/disc (Escherichia coli [27]): 11 mm
diameter of the inhibition zone (DIZ) (Rhodotorula mucilaginosa [28]): inactive
diameter of the inhibition zone (DIZ) (Pseudomonas aeruginosa [29]): inactive
diameter of the inhibition zone (DIZ) (Candida albicans [30]): inactive
diameter of the inhibition zone (DIZ) (Bacillus cereus [31]): inactive
zone of inhibition at 500 µg/disc (Bacillus subtilis [32]): 9 mm

O=c1[nH]c(=O)c2cc3cc(Cl)ccc3nc2[nH]1
diameter of the inhibition zone (DIZ) (Aspergillus niger [1]): inactive
MIC (Bacillus subtilis [2]): 31.2 µg/mL (≈ 126 µM)
zone of inhibition at 1000 µg/disc (Pseudomonas aeruginosa [3]): 12 mm
diameter of the inhibition zone (DIZ) (Aspergillus flavus [4]): inactive
MIC (Pseudomonas aeruginosa [5]): 31.2 µg/mL (≈ 126 µM)
zone of inhibition at 1000 µg/disc (Streptomyces albus [6]): 10 mm
zone of inhibition at 1000 µg/disc (Klebsiella aerogenes [7]): 8 mm
zone of inhibition at 1000 µg/disc (Candida albicans [8]; NCIM 3471, 72 h, read-out: DIZ): 10 mm
diameter of the inhibition zone (DIZ) (Rhodotorula mucilaginosa [9]): inactive
diameter of the inhibition zone (DIZ) (Klebsiella aerogenes [10]): inactive
zone of inhibition at 1000 µg/disc (Bacillus cereus [12]): 10 mm
diameter of the inhibition zone (DIZ) (Penicillium chrysogenum [13]): inactive
diameter of the inhibition zone (DIZ) (Penicillium chrysogenum [14]): inactive
diameter of the inhibition zone (DIZ) (Aspergillus flavus [15]): inactive
diameter of the inhibition zone (DIZ) (Aspergillus niger [16]): inactive
MIC (Bacillus cereus [17]): 31.2 µg/mL (≈ 126 µM)
MIC (Klebsiella aerogenes [18]): 62.5 µg/mL (≈ 252 µM)
diameter of the inhibition zone (DIZ) (Lipomyces lipofer [19]): inactive
diameter of the inhibition zone (DIZ) (Lipomyces lipofer [20]): inactive
MIC (Escherichia coli [21]): 7.8 µg/mL (≈ 31.5 µM)
MIC (Streptomyces albus [22]): 62.5 µg/mL (≈ 252 µM)
diameter of the inhibition zone (DIZ) (Streptomyces albus [23]): inactive
zone of inhibition at 1000 µg/disc (Bacillus subtilis [24]): 12 mm
zone of inhibition at 500 µg/disc (Escherichia coli [26]): 9 mm
zone of inhibition at 1000 µg/disc (Escherichia coli [27]): 12 mm
zone of inhibition at 1000 µg/disc (Rhodotorula mucilaginosa [28]; NCIM 3174, 72 h, read-out: DIZ): 9 mm
diameter of the inhibition zone (DIZ) (Pseudomonas aeruginosa [29]): inactive
diameter of the inhibition zone (DIZ) (Candida albicans [30]): inactive
zone of inhibition at 500 µg/disc (Bacillus cereus [31]; NCIM 2155, 24 h, read-out: DIZ): 8 mm
zone of inhibition at 500 µg/disc (Bacillus subtilis [32]): 8 mm
